ChEMBL document CHEMBL5034017, “Structural Insights into Schistosoma mansoni Carbonic Anhydrase (SmCA) Inhibition by Selenoureido-Substituted Benzenesulfonamides” (J Med Chem, 2021)
The source made the active and inactive calls. No cut-off for these calls is given here.

Tests used:
[1] = Inhibition of recombinant Schistosoma manson carbonic anhydrase pre-incubated with enzyme for 15 mins by phenol red dye based stopped flow CO2 hydration assay; set-up: species or system Schistosoma mansoni
[2] = Selectivity ratio of Ki for inhibition of recombinant human carbonic anhydrase 2 to Ki for inhibition of recombinant Schistosoma manson carbonic anhydrase; format: toxicity
[3] = tested on: Schistosoma mansoni; test: Antischistosomal activity against Schistosoma mansoni Puerto-Rican infected in Swiss Webster mouse assessed as worm burden reduction at 100 mg/kg, ip administered at 42, 44 and 46 hrs post infection and measured after 2 weeks; format: functional, organism-based
[4] = tested on: Schistosoma mansoni; test: Antischistosomal activity against Schistosoma mansoni Puerto-Rican infected in Swiss Webster mouse assessed as worm burden reduction at 50 mg/kg, ip administered at 42, 44 and 46 hrs post infection and measured after 2 weeks; format: functional, organism-based

Row | Structure (SMILES) | Ki [1] [nM] | Ratio Ki [2] | Activity [3] | Activity [4]
1 | NS(=O)(=O)c1ccc(CCNC(=[Se])Nc2ccccc2F)cc1 | 7.9 | 1 | – | –
2 | NS(=O)(=O)c1ccc(CCNC(=S)Nc2ccc(I)cc2)cc1 | 37.6 | 0.2 | – | –
3 | NS(=O)(=O)c1ccc(CCNC(=[Se])Nc2cccc(C(F)(F)F)c2)cc1 | 4.5 | 0.97 | – | –
4 | NS(=O)(=O)c1ccc(NC(=[Se])Nc2cccc(C(F)(F)F)c2)cc1 | 1.5 | 4.1 | – | –
5 | NS(=O)(=O)c1ccc(NC(=[Se])Nc2ccccc2F)cc1 | 5.7 | 1.1 | – | –
6 | NS(=O)(=O)c1ccc(CCNC(=O)Nc2ccc(I)cc2)cc1 | 13.3 | 0.6 | – | –
7 | NS(=O)(=O)c1ccc(CCNC(=[Se])Nc2ccccc2)cc1 | 3.2 | 1.7 | – | –
8 | NS(=O)(=O)c1ccc(CCNC(=[Se])Nc2ccc(Br)cc2)cc1 | 1.7 | 1.05 | – | –
9 | NS(=O)(=O)c1ccc(NC(=[Se])Nc2ccc(F)cc2)cc1 | 76.8 | 0.9 | – | –
10 | NS(=O)(=O)c1ccc(NC(=[Se])Nc2ccccc2Cl)cc1 | 6.8 | 0.6 | – | –
11 | NS(=O)(=O)c1ccc(CCNC(=[Se])Nc2ccc3ccccc3c2)cc1 | 84.9 | 1.1 | – | –
12 | NS(=O)(=O)c1cccc(NC(=[Se])Nc2ccccc2)c1 | 426 | 0.8 | – | –
13 | CC(=O)Nc1nnc(S(N)(=O)=O)s1 [ACETAZOLAMIDE] | 42.5 | 0.3 | – | –
14 | NS(=O)(=O)c1ccc(NC(=[Se])Nc2ccccc2)cc1 | 83.7 | 0.6 | inactive | –
15 | NS(=O)(=O)c1cccc(NC(=[Se])Nc2ccc(F)cc2)c1 | 91.4 | 4.2 | – | –
16 | NS(=O)(=O)c1ccc(NC(=S)Nc2ccc(F)cc2)cc1 | 23.3 | 0.6 | – | –
17 | NS(=O)(=O)c1ccc(CCNC(=[Se])Nc2ccccc2Cl)cc1 | 5.8 | 0.6 | inactive | –
18 | NS(=O)(=O)c1ccc(NC(=O)Nc2ccc(F)cc2)cc1 [SLC-0111] | 54.3 | 1.7 | – | inactive
19 | COc1ccccc1NC(=[Se])NCCc1ccc(S(N)(=O)=O)cc1 | 6.1 | 0.7 | – | –
20 | NS(=O)(=O)c1ccc(CCNC(=[Se])Nc2ccc(I)cc2)cc1 | 4.7 | 12.2 | – | –
